Data as given in ChEMBL document CHEMBL4414580, “(-)-Epigallocatechin 3-O-Gallate as a New Approach for the Treatment of Visceral Leishmaniasis” (J Nat Prod, 2019).
Activity calls are given as the source filed them. The rule behind the calls is not given here.

Key:
Leishmania infantum [1] = assay: Antileishmanial activity against stationary phase of Leishmania infantum MHOM/MA/67/ITMAP263 promastigotes infected in BALB/c mouse assessed as decrease in parasitic load in liver at 50 mg Sb5+/kg/day, im once daily for 5 days on 7th day post infection and measured on day 30 by limiting dilution assay; type: functional, organism-based
Leishmania infantum [2] = assay: Antileishmanial activity against Leishmania infantum MHOM/MA/67/ITMAP263 promastigotes infected in BALB/c mouse peritoneal macrophages assessed as decrease in parasitic infection index incubated for 72 hrs by light microscopy; type: functional, organism-based
Leishmania infantum [3] = assay: Antileishmanial activity against Leishmania infantum MHOM/MA/67/ITMAP263 promastigotes infected in BALB/c mouse peritoneal macrophages assessed as decrease in parasitic infection index at 48 uM incubated for 72 hrs by light microscopy relative to control; type: functional; conditions: MHOM/MA/67/ITMAP263, 72 h
[4] = Selectivity index, ratio of CC50 for mouse peritoneal macrophages to EC50 for Leishmania infantum MHOM/MA/67/ITMAP263 promastigotes infected in BALB/c mouse peritoneal macrophages; type: toxicity; conditions: read-out: Ratio CC50/EC50
Leishmania infantum [5] = assay: Antileishmanial activity against stationary phase of Leishmania infantum MHOM/MA/67/ITMAP263 promastigotes infected in orally dosed BALB/c mouse assessed as decrease in parasitic load in liver administered via gavage bid for 5 days on 7th day post infection and measured on day 30 by limiting dilution assay; type: functional
Leishmania infantum [6] = assay: (§1) Antileishmanial activity against stationary phase of Leishmania infantum MHOM/MA/67/ITMAP263 infected in BALB/c mouse assessed as decrease in parasitic load in liver at 12.5 mg/kg/day administered orally via gavage as bid for 5 days on 7th day post infection and measured on day 30 by limiting dilution assay relative to control; type: functional; conditions: MHOM/MA/67/ITMAP263, po
Leishmania infantum [7] = assay: as §1, with “25” for “12.5”; type: functional; conditions: MHOM/MA/67/ITMAP263, po
Leishmania infantum [8] = assay: as §1, with “MHOM/MA/67/ITMAP263 promastigotes” for “MHOM/MA/67/ITMAP263”, “50” for “12.5”; type: functional; conditions: MHOM/MA/67/ITMAP263, po

| Molecule | inhibition (Leishmania infantum [1]) | inhibition (Leishmania infantum [2]) | EC50 (Leishmania infantum [2]; MHOM/MA/67/ITMAP263, 72 h) | inhibition at 48 µM (Leishmania infantum [3]) | selectivity ratio [4] | inhibition (Leishmania infantum [5]) | ED50 (Leishmania infantum [5]; MHOM/MA/67/ITMAP263, po) | ED90 (Leishmania infantum [5]; MHOM/MA/67/ITMAP263, po) | inhibition in vivo at 12.5 mg/kg/day (Leishmania infantum [6]) | inhibition in vivo at 25 mg/kg/day (Leishmania infantum [7]) | inhibition in vivo at 50 mg/kg/day (Leishmania infantum [8]) |
| --- | --- | --- | --- | --- | --- | --- | --- | --- | --- | --- | --- |
| Meglumine antimoniate | Active |  |  |  |  |  |  |  |  |  |  |
| O=C(O[C@@H]1Cc2c(O)cc(O)cc2O[C@@H]1c1cc(O)c(O)c(O)c1)c1cc(O)c(O)c(O)c1 [EPIGALOCATECHIN GALLATE] |  | Dose-dependent effect | 2600 nM | 97.7% | 168 | Dose-dependent effect | 12.4 mg/kg/day | 21.5 mg/kg/day | 47.5% | 93.6% | 98.7% |
